Assay results published in the NIST ThermoML archive (doi:10.1016/j.jct.2006.07.022).

Assay: xn = mol fraction of the nth substance listed
Conditions: 101 kPa, Liquid

CN(C)C=O [dimethylformamide] + Cc1ccccc1
Conditions | mass density [kg/m3]
293.15 K, x2 = 0 | 948.58
293.15 K, x2 = 0.0587 | 943.21
293.15 K, x2 = 0.0924 | 940.15
293.15 K, x2 = 0.1596 | 934.15
293.15 K, x2 = 0.2106 | 929.65
293.15 K, x2 = 0.2706 | 924.43
293.15 K, x2 = 0.3202 | 920.16
293.15 K, x2 = 0.3823 | 914.89
293.15 K, x2 = 0.4504 | 909.2
293.15 K, x2 = 0.5171 | 903.73
293.15 K, x2 = 0.5636 | 899.97
293.15 K, x2 = 0.7212 | 887.54
293.15 K, x2 = 0.7647 | 884.19
293.15 K, x2 = 0.8114 | 880.65
293.15 K, x2 = 0.8715 | 876.16
293.15 K, x2 = 0.9412 | 871.04
303.15 K, x2 = 0 | 939.46
303.15 K, x2 = 0.0451 | 935.32
303.15 K, x2 = 0.1012 | 930.23
303.15 K, x2 = 0.1674 | 924.31
303.15 K, x2 = 0.2151 | 920.11
303.15 K, x2 = 0.2855 | 913.98
303.15 K, x2 = 0.3484 | 908.59
303.15 K, x2 = 0.4188 | 902.65
303.15 K, x2 = 0.4876 | 896.96
303.15 K, x2 = 0.5508 | 891.8
303.15 K, x2 = 0.6134 | 886.77
303.15 K, x2 = 0.6745 | 881.95
303.15 K, x2 = 0.7512 | 876
303.15 K, x2 = 0.8121 | 871.36
303.15 K, x2 = 0.8614 | 867.66
303.15 K, x2 = 0.9318 | 862.47
313.15 K, x2 = 0 | 930.12
313.15 K, x2 = 0.051 | 925.45
313.15 K, x2 = 0.1112 | 920.02
313.15 K, x2 = 0.1984 | 912.27
313.15 K, x2 = 0.2511 | 907.67
313.15 K, x2 = 0.3147 | 902.18
313.15 K, x2 = 0.3784 | 896.76
313.15 K, x2 = 0.4322 | 892.26
313.15 K, x2 = 0.5053 | 886.23
313.15 K, x2 = 0.5721 | 880.8
313.15 K, x2 = 0.6427 | 875.17
313.15 K, x2 = 0.7077 | 870.09
313.15 K, x2 = 0.7812 | 864.43
313.15 K, x2 = 0.8419 | 859.84
313.15 K, x2 = 0.8932 | 856.01
313.15 K, x2 = 0.9588 | 851.2
323.15 K, x2 = 0 | 920.55
323.15 K, x2 = 0.044 | 916.54
323.15 K, x2 = 0.1062 | 910.94
323.15 K, x2 = 0.1721 | 905.1
323.15 K, x2 = 0.2314 | 899.91
323.15 K, x2 = 0.2985 | 894.12
323.15 K, x2 = 0.3647 | 888.5
323.15 K, x2 = 0.4215 | 883.74
323.15 K, x2 = 0.4874 | 878.3
323.15 K, x2 = 0.5484 | 873.34
323.15 K, x2 = 0.6014 | 869.09
323.15 K, x2 = 0.6647 | 864.08
323.15 K, x2 = 0.7314 | 858.9
323.15 K, x2 = 0.7951 | 854.03
323.15 K, x2 = 0.8654 | 848.74
323.15 K, x2 = 0.9321 | 843.83
333.15 K, x2 = 0 | 910.75
333.15 K, x2 = 0.0512 | 906.14
333.15 K, x2 = 0.112 | 900.72
333.15 K, x2 = 0.1784 | 894.89
333.15 K, x2 = 0.2351 | 889.98
333.15 K, x2 = 0.2985 | 884.55
333.15 K, x2 = 0.3514 | 880.08
333.15 K, x2 = 0.4122 | 875
333.15 K, x2 = 0.4841 | 869.09
333.15 K, x2 = 0.5451 | 864.14
333.15 K, x2 = 0.6015 | 859.64
333.15 K, x2 = 0.6641 | 854.71
333.15 K, x2 = 0.7321 | 849.44
333.15 K, x2 = 0.7951 | 844.64
333.15 K, x2 = 0.8621 | 839.62
333.15 K, x2 = 0.9245 | 835.02
343.15 K, x2 = 0 | 900.73
343.15 K, x2 = 0.0632 | 895.11
343.15 K, x2 = 0.1201 | 890.11
343.15 K, x2 = 0.1854 | 884.45
343.15 K, x2 = 0.2554 | 878.46
343.15 K, x2 = 0.3114 | 873.73
343.15 K, x2 = 0.3784 | 868.14
343.15 K, x2 = 0.4552 | 861.82
343.15 K, x2 = 0.5114 | 857.28
343.15 K, x2 = 0.5662 | 852.9
343.15 K, x2 = 0.6212 | 848.55
343.15 K, x2 = 0.6812 | 843.88
343.15 K, x2 = 0.7499 | 838.61
343.15 K, x2 = 0.8021 | 834.67
343.15 K, x2 = 0.8654 | 829.95
343.15 K, x2 = 0.9421 | 824.34
353.15 K, x2 = 0 | 890.48
353.15 K, x2 = 0.0451 | 886.53
353.15 K, x2 = 0.1023 | 881.55
353.15 K, x2 = 0.1654 | 876.13
353.15 K, x2 = 0.2215 | 871.36
353.15 K, x2 = 0.2865 | 865.91
353.15 K, x2 = 0.3412 | 861.36
353.15 K, x2 = 0.4012 | 856.44
353.15 K, x2 = 0.4687 | 850.98
353.15 K, x2 = 0.5214 | 846.76
353.15 K, x2 = 0.5841 | 841.82
353.15 K, x2 = 0.6474 | 836.89
353.15 K, x2 = 0.7142 | 831.77
353.15 K, x2 = 0.7784 | 826.93
353.15 K, x2 = 0.8451 | 821.96
353.15 K, x2 = 0.9012 | 817.86
